Laboratory results taken from the supplement of paper PMC10307832.

Compound: O=C(NC1CCNCC1)c1n[nH]cc1NC(=O)c1c(Cl)cccc1Cl [AT-7519] + Cc1nc(NC(=O)N2CCC[C@H]2C(N)=O)sc1-c1ccnc(C(C)(C)C(F)(F)F)c1 [Alpelisib] (partner 2 µM)
Test: relative viability (nuclei count vs DMSO), 5 days (fraction); higher = more cells survive
Conditions: first compound 0.01 µM
In short: (§1)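 Five library-drug doses in √10 steps were combined with a fixed anchor-drug dose, or a single drug was given alone, by pin tool to lung cancer cell lines in 1536-well plates the day after seeding. Nuclei were stained and counted after 5 days. Relative viability is the nuclei count in treated wells over that in vehicle wells, taken as the median of duplicate plates.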

In order of falling relative viability:
1. NCI-H2087  1.14
2. NCI-H2009  1.14
3. COR-L 105  1.13
4. SK-LU-1  1.13
5. NCI-H1299  1.1
6. NCI-H838  1.05
7. Calu-6  0.995
8. COR-L23  0.987
9. NCI-H2228  0.972
10. LCLC-103H  0.956
11. NCI-H2405  0.934
12. IA-LM  0.904
13. NCI-H2085  0.899
14. A549  0.882
15. NCI-H1563  0.868
16. EBC-1  0.863
17. NCI-H1666  0.846
18. SK-MES-1  0.839
19. HCC-44  0.835
20. NCI-H2170  0.828
21. NCI-H520  0.81
22. SW 1573  0.802
23. LOU-NH91  0.768
24. NCI-H2126  0.766
25. NCI-H1993  0.728
26. EMC-BAC-2  0.716
27. H3255  0.712
28. LK-2  0.697
29. NCI-H727  0.649
30. NCI-H2023  0.648
31. NCI-H661  0.488
32. NCI-H596  0.485
33. HCC-366  0.362
34. NCI-H1792  0.324
35. NCI-H1703  0.282

Same assay, conditions: first compound 0.03162 µM

In order of falling relative viability:
1. NCI-H2087  1.21
2. Calu-6  1.17
3. LK-2  1.12
4. NCI-H2009  1.12
5. NCI-H1299  1.08
6. NCI-H1666  1.01
7. COR-L 105  0.996
8. NCI-H838  0.972
9. NCI-H1563  0.942
10. SK-LU-1  0.94
11. NCI-H2085  0.926
12. LCLC-103H  0.908
13. NCI-H520  0.847
14. EBC-1  0.835
15. HCC-44  0.835
16. NCI-H2228  0.821
17. NCI-H2126  0.798
18. NCI-H2170  0.796
19. NCI-H2405  0.773
20. COR-L23  0.746
21. SW 1573  0.739
22. NCI-H2023  0.711
23. A549  0.708
24. LOU-NH91  0.703
25. EMC-BAC-2  0.699
26. SK-MES-1  0.699
27. H3255  0.678
28. NCI-H1993  0.677
29. IA-LM  0.617
30. NCI-H596  0.548
31. NCI-H1792  0.536
32. NCI-H727  0.486
33. NCI-H661  0.445
34. HCC-366  0.347
35. NCI-H1703  0.297

Same assay, conditions: first compound 0.3162 µM

In order of falling relative viability:
1. NCI-H1299  1.17
2. NCI-H2009  1.15
3. NCI-H2087  1.01
4. LCLC-103H  0.976
5. NCI-H838  0.966
6. NCI-H1563  0.942
7. NCI-H2085  0.941
8. COR-L 105  0.927
9. NCI-H520  0.884
10. Calu-6  0.877
11. NCI-H1666  0.864
12. SK-LU-1  0.861
13. SK-MES-1  0.86
14. H3255  0.833
15. LK-2  0.827
16. NCI-H2170  0.794
17. EMC-BAC-2  0.782
18. IA-LM  0.779
19. HCC-44  0.769
20. NCI-H1792  0.767
21. NCI-H661  0.758
22. NCI-H2126  0.749
23. SW 1573  0.743
24. EBC-1  0.734
25. LOU-NH91  0.729
26. NCI-H2405  0.716
27. A549  0.69
28. NCI-H1993  0.676
29. NCI-H2228  0.584
30. NCI-H727  0.546
31. HCC-366  0.514
32. NCI-H2023  0.498
33. COR-L23  0.348
34. NCI-H1703  0.299
35. NCI-H596  0.191

Same assay, conditions: first compound 1 µM

In order of falling relative viability:
1. NCI-H1299  1.15
2. LCLC-103H  0.952
3. NCI-H2170  0.81
4. NCI-H1563  0.781
5. EMC-BAC-2  0.746
6. NCI-H2126  0.695
7. NCI-H2009  0.668
8. NCI-H2085  0.656
9. NCI-H1993  0.614
10. LOU-NH91  0.579
11. HCC-44  0.572
12. EBC-1  0.55
13. H3255  0.519
14. LK-2  0.514
15. NCI-H1792  0.51
16. COR-L 105  0.507
17. NCI-H661  0.506
18. IA-LM  0.488
19. NCI-H520  0.478
20. NCI-H2228  0.415
21. NCI-H596  0.41
22. SK-MES-1  0.397
23. SW 1573  0.394
24. Calu-6  0.391
25. SK-LU-1  0.351
26. NCI-H2405  0.331
27. NCI-H1666  0.326
28. A549  0.322
29. NCI-H2023  0.3
30. HCC-366  0.228
31. NCI-H727  0.226
32. NCI-H2087  0.161
33. NCI-H1703  0.156
34. NCI-H838  0.141
35. COR-L23  0.119

Compound: C1=CC2=C(C=C(C(=C2N=C1)O)N=NC3=CC4=C(C=C3)C=C(C=C4)S(=O)(=O)O)S(=O)(=O)O + NC(=O)Nc1cc(-c2cccc(F)c2)sc1C(=O)N[C@H]1CCCNC1 [AZD7762] (partner 0.2 µM)
Test: as above
Conditions: first compound 0.08 µM
In short: as §1

In order of rising relative viability:
1. NCI-H1703  0.147
2. HCC-366  0.291
3. LK-2  0.549
4. SW 900  0.597
5. NCI-H2342  0.603
6. NCI-H727  0.689
7. LOU-NH91  0.779
8. NCI-H522  0.783
9. LCLC-103H  0.85
10. NCI-H1666  0.868
11. NCI-H2085  0.874
12. H3255  0.893
13. NCI-H2405  0.898
14. NCI-H1993  0.906
15. ChaGo-K-1  0.933
16. NCI-H1792  1
17. NCI-H838  1.01
18. HCC-44  1.01
19. NCI-H2170  1.02
20. EMC-BAC-2  1.04
21. NCI-H2126  1.05
22. NCI-H596  1.25
23. NCI-H2087  1.31

Same assay, conditions: first compound 0.253 µM

In order of rising relative viability:
1. NCI-H1703  0.163
2. HCC-366  0.273
3. LK-2  0.345
4. NCI-H2342  0.541
5. NCI-H727  0.639
6. SW 900  0.644
7. NCI-H1792  0.655
8. NCI-H1993  0.712
9. NCI-H1648  0.712
10. LOU-NH91  0.75
11. NCI-H2405  0.784
12. NCI-H1666  0.798
13. LCLC-103H  0.801
14. ChaGo-K-1  0.82
15. H3255  0.881
16. NCI-H838  0.882
17. NCI-H522  0.932
18. NCI-H2126  0.971
19. NCI-H2085  1.03
20. HCC-44  1.03
21. NCI-H2170  1.04
22. EMC-BAC-2  1.1
23. NCI-H596  1.12
24. NCI-H2087  1.51

Same assay, conditions: first compound 0.8 µM

In order of falling relative viability:
1. NCI-H2087  1.27
2. NCI-H596  1.13
3. EMC-BAC-2  1.09
4. HCC-44  0.997
5. NCI-H522  0.971
6. NCI-H2126  0.941
7. NCI-H2085  0.902
8. NCI-H838  0.89
9. H3255  0.89
10. NCI-H2170  0.89
11. ChaGo-K-1  0.845
12. NCI-H1666  0.787
13. LCLC-103H  0.758
14. NCI-H2405  0.738
15. LOU-NH91  0.737
16. NCI-H1792  0.723
17. NCI-H1993  0.702
18. NCI-H727  0.646
19. SW 900  0.598
20. NCI-H2342  0.463
21. LK-2  0.369
22. HCC-366  0.26
23. NCI-H1703  0.13

Same assay, conditions: first compound 2.53 µM

In order of rising relative viability:
1. HCC-366  0.272
2. LK-2  0.452
3. NCI-H2342  0.462
4. SW 900  0.588
5. NCI-H727  0.639
6. NCI-H1792  0.715
7. NCI-H2405  0.77
8. LCLC-103H  0.774
9. NCI-H522  0.787
10. LOU-NH91  0.794
11. NCI-H1666  0.802
12. NCI-H1993  0.845
13. ChaGo-K-1  0.892
14. NCI-H2126  0.939
15. H3255  0.939
16. NCI-H838  0.965
17. NCI-H2085  0.971
18. NCI-H2170  1.01
19. NCI-H596  1.04
20. HCC-44  1.05
21. EMC-BAC-2  1.14
22. NCI-H2087  1.38

Same assay, conditions: first compound 8 µM

In order of rising relative viability:
1. NCI-H1703  0.16
2. LK-2  0.285
3. HCC-366  0.291
4. NCI-H2342  0.582
5. NCI-H727  0.658
6. SW 900  0.666
7. LOU-NH91  0.676
8. NCI-H522  0.714
9. NCI-H1648  0.717
10. ChaGo-K-1  0.721
11. NCI-H2405  0.732
12. NCI-H1666  0.771
13. NCI-H1993  0.832
14. NCI-H1792  0.836
15. NCI-H838  0.882
16. LCLC-103H  0.891
17. H3255  0.899
18. NCI-H2170  0.914
19. NCI-H2085  0.969
20. NCI-H2126  0.994
21. EMC-BAC-2  0.995
22. HCC-44  1.04
23. NCI-H596  1.17
24. NCI-H2087  1.29

Compound: C1=CC2=C(C=C(C(=C2N=C1)O)N=NC3=CC4=C(C=C3)C=C(C=C4)S(=O)(=O)O)S(=O)(=O)O + COc1cc2c(Oc3ccc(NC(=O)C4(C(=O)Nc5ccc(F)cc5)CC4)cc3F)ccnc2cc1OCCCN1CCOCC1 [Foretinib] (partner 0.25 µM)
Test: as above
Conditions: first compound 0.08 µM
In short: as §1

In order of falling relative viability:
1. NCI-H1650  1.34
2. LK-2  1.33
3. IA-LM  1.3
4. NCI-H2009  1.3
5. NCI-H2342  1.22
6. NCI-H2126  1.22
7. NCI-H1299  1.17
8. NCI-H838  1.13
9. NCI-H661  1.12
10. SW 1573  1.1
11. NCI-H2405  1.1
12. NCI-H2085  1.08
13. EMC-BAC-2  1.07
14. NCI-H2087  1.07
15. A549  1.06
16. NCI-H1666  1.05
17. NCI-H2170  1.05
18. NCI-H1563  1.04
19. NCI-H520  1.01
20. COR-L23  1.01
21. SK-LU-1  1.01
22. LOU-NH91  0.974
23. COR-L 105  0.961
24. ChaGo-K-1  0.953
25. NCI-H727  0.939
26. HCC-366  0.927
27. NCI-H596  0.902
28. NCI-H2228  0.902
29. Calu-6  0.887
30. LCLC-103H  0.87
31. SK-MES-1  0.86
32. NCI-H1623  0.845
33. SW 900  0.806
34. NCI-H2023  0.769
35. NCI-H1993  0.766
36. H3255  0.693
37. NCI-H1703  0.334
38. EBC-1  0.1

Same assay, conditions: first compound 0.253 µM

In order of rising relative viability:
1. EBC-1  0.106
2. NCI-H727  0.759
3. NCI-H1993  0.78
4. NCI-H520  0.828
5. LCLC-103H  0.852
6. NCI-H1623  0.874
7. NCI-H2085  0.886
8. EMC-BAC-2  0.987
9. SW 1573  1.02
10. NCI-H838  1.06
11. NCI-H2342  1.1
12. NCI-H2126  1.16
13. NCI-H1650  1.17
